Experimental data taken from patent US20240016775A1, “ANTI-CORONAVIRUS APPLICATION OF POLY ADP RIBOSE POLYMERASE INHIBITOR” (FUKANG (SHANGHAI) HEALTH TECHNOLOGY CO., LTD, priority 2020, published 2024).
Values joined by “and” are separate entries in the source; they are usually repeats but may differ in a detail not shown here. Equal entries are not always repeated. Where two headings read alike, the source gives them in different places.

Columns and labels:
SARS-CoV-2 [1] = assay: microbe, parasite or virus in culture; format: cell-based
SARS-CoV-2 [2] = assay: Time-of-addition assay (duration of action) in Vero E6 cells; format: cell-based; conditions: CVL218 20 μM, remdesivir 10 μM, 14 h after infection
IL-6 production in PBMCs = format: cell-based; conditions: 12 hours
[3] = Pharmacokinetic study of CVL218 in rats; format: in vivo, Sprague-Dawley rats
Method: (§1) Sprague-Dawley rats were purchased from Animal Experiment Center of Shanghai, China. The experimental animals were housed in groups in wire cages, with no more than 6 animals per cage. The experimental conditions were good (temperature 25±2° C.; relative humidity 50±20%) and light-dark cycle (12 hours/12 hours). 144 Sprague-Dawley rats were randomized into 4 groups (18 animals/gender/group). CVL218 was administered at doses of 20, 40, 60 and 160 mg/kg. For all groups, 20 rats (10 animals/gender/group) were randomly selected, euthanized on day 28, and sections of various tissues and organs were obtained and frozen. Ten (5/gender/group) animals were euthanized after a 28-day drug-free period, and sections of their tissues and organs were taken and frozen. Six animals (3/gender/group) were euthanized after blood samples were collected. For pharmacokinetics and safety evaluations, the blood concentrations, clinical symptoms, mortality and body weight of animals were examined.

[4] = Tissue distribution study of CVL218 in rats (LC-MS-MS); format: in vivo, Sprague-Dawley rats; conditions: for Tissue concentration, Brain / Tissue concentration, Heart / Tissue concentration, Kidney / Tissue concentration, Liver / Tissue concentration, Lung / Tissue concentration, Spleen / Tissue concentration, Stomach: oral 20 mg/kg
Method: Sprague-Dawley rats were randomized into 3 time-point groups (3 animals/gender/group). At 3, 6 and 8 hours after CVL218 administration, animals were sacrificed, and the brain, heart, lung, liver, spleen, stomach and kidney tissues were collected. The tissue samples were washed with ice-cold physiological saline and weighed after excess liquid was removed with paper towels. After tissue sample solutions were weighed, they were stored at −20±2° C. until the drug concentration was determined by LC-MS-MS.

[5] = Body weight of rats, 28 days oral administration and 28 days without; format: in vivo, Sprague-Dawley rats; conditions: oral 20/60/160 mg/kg, then 28 days off
Method: as §1

[6] = Safety study in cynomolgus monkeys (body weight); format: in vivo; conditions: 5/20/80 mg/kg, 28 days, then 28 days off
Method: Healthy male and female monkeys, aged 3-4 years, were purchased from Landao Biotechnology, Guangdong, China. Animals were fed in accordance with the Guide for Care and Use of Laboratory Animals. The animals were randomized (5 animals/gender/group), and were fed with CVL218 via nasogastric at dose levels of 0 (control), 5, 20 and 80 mg/kg. Monkeys were observed twice daily for any changes in viability/mortality and behavior, response to treatment or health status.

SARS-CoV-2 [7] = tested on: SARS-CoV-2
[8] = Cytotoxicity test on Vero-E6 cells (CCK-8); format: cell-based; conditions: African green monkey, 48 h, read-out: CC50 (50% cytotoxic concentration)
Method: 2.1 Experimental Groups: • 1) Mefuparib hydrochloride (CVL218) group • 2) DMSO control group • 3) Olaparib group • 4) Cell control group: containing only cells, without adding drugs • 5) Blank control group (only medium without cells)
Mefuparib hydrochloride was obtained from Pukang (Shanghai) Health Technology Co., Ltd., with a purity of >99.0%. It was dissolved in DMSO and then diluted in gradients according to Table 4 below (the maintenance solution was DMEM medium). Serial dilutions were performed for DMSO according to the same dilution gradients.
Vero-E6 cells were seeded into 96-well culture plates at 1×10^4 cells/well, and cultured in DMEM containing 10% fetal bovine serum for 16 hours to become 80% pellets, then the cell culture medium was aspirated and discarded from each well, the cells were washed once with sterile PBS, and different drugs (200 μl/well) diluted in the cell maintenance solution were added to each well according to the experimental groups, with 3 duplicate wells set up for each group, and then the wells were placed in a 37° C., 5% CO2 incubator for 48 h.
For the DMSO control group, DMSO diluted with the cell maintenance solution to the corresponding concentration was added, and for the cell control group, 200 μl of the cell maintenance solution was added. For the blank control group, only cell maintenance solution without cells was added.
2.3.2 Detection of toxicity of mefuparib hydrochloride and Olaparib on Vero-E6 The cell state was observed and recorded under an inverted microscope, and the toxicity of the drug to Vero-E6 cells was detected according to the operation instructions of the CCK-8 kit: 20 μl of CCK-8 solution was added to all experimental wells and control wells, and the cell culture plate was placed in a 37° C., 5% CO2 incubator for 1 hour, and then its absorbance value at the wavelength of 450 nm was measured using a multifunctional microplate reader.

CNCc1ccc(-c2cc3cc(F)cc(C(N)=O)c3o2)cc1.Cl [CVL218, mefuparib hydrochloride]
Inhibiting rate, % (SARS-CoV-2 [1]; 3 μM, Vero-E6, MOI 0.05, 48 h, hydrochloride): 35% and 35.16%
EC50 (SARS-CoV-2 [1]; different batches, hydrochloride, read-out: EC50 against SARS-CoV-2): 7.67 µM and 5.12 µM
Antiviral activity, after the virus enters (SARS-CoV-2 [2]): significantly inhibit the replication after viral entry
Antiviral activity, when the virus enters (SARS-CoV-2 [2]): partially antagonize viral entry
Antiviral activity, whole process treatment (SARS-CoV-2 [2]; versus DMSO): stronger antiviral activity
Reduction of CpG-induced IL-6 production (IL-6 production in PBMCs; 1 μM): 50%
Reduction of CpG-induced IL-6 production (IL-6 production in PBMCs; 3 μM): 72.65%
AUC0-t ([3]; oral 20 mg/kg, Female): 2196 ± 228 ngh/mL
AUC0-∞ ([3]; oral 20 mg/kg, Female): 2222 ± 241 ngh/mL
Cmax ([3]; oral 20 mg/kg, Female): 502 ± 80 ng/mL
MRT0-∞ ([3]; oral 20 mg/kg, Female): 3.16 h
Tmax ([3]; oral 20 mg/kg, Female): 3.0 h
t1/2 ([3]; oral 20 mg/kg, Female): 1.1 ± 0.16 h
AUC0-t ([3]; oral 20 mg/kg, Male): 1070 ± 176 ngh/mL
AUC0-∞ ([3]; oral 20 mg/kg, Male): 1111 ± 192 ngh/mL
Cmax ([3]; oral 20 mg/kg, Male): 234 ± 35 ng/mL
MRT0-∞ ([3]; oral 20 mg/kg, Male): 3.91 h
Tmax ([3]; oral 20 mg/kg, Male): 4.0 h
t1/2 ([3]; oral 20 mg/kg, Male): 1.19 ± 0.09 h
AUC0-t ([3]; oral 20 mg/kg, Total): 1633 ± 643 ngh/mL
AUC0-∞ ([3]; oral 20 mg/kg, Total): 1666 ± 639 ngh/mL
Cmax ([3]; oral 20 mg/kg, Total): 368 ± 157 ng/mL
MRT0-∞ ([3]; oral 20 mg/kg, Total): 3.54 h
Tmax ([3]; oral 20 mg/kg, Total): 3.5 h
t1/2 ([3]; oral 20 mg/kg, Total): 1.15 ± 0.13 h
AUC0-t ([3]; oral 40 mg/kg, Female): 5220 ± 1113 ngh/mL
AUC0-∞ ([3]; oral 40 mg/kg, Female): 5242 ± 1115 ngh/mL
Cmax ([3]; oral 40 mg/kg, Female): 940 ± 117 ng/mL
MRT0-∞ ([3]; oral 40 mg/kg, Female): 4.05 h
Tmax ([3]; oral 40 mg/kg, Female): 2.0 h
t1/2 ([3]; oral 40 mg/kg, Female): 1.29 ± 0.21 h
AUC0-t ([3]; oral 40 mg/kg, Male): 2802 ± 967 ngh/mL
AUC0-∞ ([3]; oral 40 mg/kg, Male): 2830 ± 983 ngh/mL
Cmax ([3]; oral 40 mg/kg, Male): 510 ± 259 ng/mL
MRT0-∞ ([3]; oral 40 mg/kg, Male): 4.51 h
Tmax ([3]; oral 40 mg/kg, Male): 3.0 h
t1/2 ([3]; oral 40 mg/kg, Male): 1.3 ± 0.33 h
AUC0-t ([3]; oral 40 mg/kg, Total): 4011 ± 1620 ngh/mL
AUC0-∞ ([3]; oral 40 mg/kg, Total): 4036 ± 1620 ngh/mL
Cmax ([3]; oral 40 mg/kg, Total): 725 ± 296 ng/mL
MRT0-∞ ([3]; oral 40 mg/kg, Total): 4.28 h
Tmax ([3]; oral 40 mg/kg, Total): 2.5 h
t1/2 ([3]; oral 40 mg/kg, Total): 1.3 ± 0.24 h
Tissue/serum drug concentration ratio, Brain [4]: 9.728 ± 1.130
Tissue/serum drug concentration ratio, Heart [4]: 16.514 ± 1.348
Tissue/serum drug concentration ratio, Kidney [4]: 41.307 ± 5.391
Tissue/serum drug concentration ratio, Liver [4]: 46.780 ± 5.215
Tissue/serum drug concentration ratio, Spleen [4]: 54.897 ± 6.250
Tissue/serum drug concentration ratio, Stomach [4]: 22.133 ± 7.130
Tissue/serum drug concentration ratio, Lung ([4]; hydrochloride): 188 and 188.364 ± 28.467
Tissue concentration, Brain ([4]; 180 min): 3580 ± 416
Tissue concentration, Heart ([4]; 180 min): 6077 ± 496
Tissue concentration, Kidney ([4]; 180 min): 15201 ± 1984
Tissue concentration, Liver ([4]; 180 min): 17215 ± 1919
Tissue concentration, Lung ([4]; 180 min): 69318 ± 10476
Tissue concentration, Spleen ([4]; 180 min): 20202 ± 2300
Tissue concentration, Stomach ([4]; 180 min): 8145 ± 2624
Tissue concentration, Brain ([4]; 360 min): 998 ± 220
Tissue concentration, Heart ([4]; 360 min): 1390 ± 292
Tissue concentration, Kidney ([4]; 360 min): 3903 ± 594
Tissue concentration, Liver ([4]; 360 min): 2187 ± 859
Tissue concentration, Lung ([4]; 360 min): 18858 ± 2365
Tissue concentration, Spleen ([4]; 360 min): 6358 ± 1058
Tissue concentration, Stomach ([4]; 360 min): 1871 ± 813
Tissue concentration, Brain ([4]; 480 min): 317 ± 55
Tissue concentration, Heart ([4]; 480 min): 275 ± 80
Tissue concentration, Kidney ([4]; 480 min): 993 ± 327
Tissue concentration, Liver ([4]; 480 min): 213 ± 88
Tissue concentration, Lung ([4]; 480 min): 4183 ± 847
Tissue concentration, Spleen ([4]; 480 min): 1475 ± 324
Tissue concentration, Stomach ([4]; 480 min): 569 ± 293
Body weight versus control group [5]: no significant difference in body weight
Body weight versus control group [6]: no significant difference in body weight
Cytopathic effect in infected cells (SARS-CoV-2 [7]; 25 μM): No apparent cytopathic effect
Expression of the viral nucleoprotein (NP) (SARS-CoV-2 [7]; 5, 15, 25 μM, 14 h after infection, versus DMSO treated cells): significantly lower

O=C(c1cc(Cc2n[nH]c(=O)c3ccccc23)ccc1F)N1CCN(C(=O)C2CC2)CC1 [Olaparib, olaparib, reference compound]
inhibition at 3.2 µM (SARS-CoV-2 [1]; Severe acute respiratory syndrome coronavirus 2, Vero C1008, 48 h, 3.2 μM, Vero-E6, MOI 0.05, 48 h, different batches, read-out: Inhibiting rate, %): ~12%
CC50 at 48 h [8]: 100 to 300 µM
